# Measurements taken from the supplement of paper PMC10307832.
# Columns and labels:
# Experiment in all cases: relative viability (nuclei count vs DMSO), 5 days (fraction); higher = more cells survive
# [1] = compound: CN(NC(=O)CC(=O)NN(C)C(=S)c1ccccc1)C(=S)c1ccccc1 [Elesclomol] + CS(=O)(=O)CCNCc1ccc(-c2ccc3ncnc(Nc4ccc(OCc5cccc(F)c5)c(Cl)c4)c3c2)o1 [Lapatinib] (partner 2 µM)
# In short: (§1)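 Nuclei were stained with Hoechst during a one-step fixation (final 0.05% Triton X-100, 1% formaldehyde, 1 ug/ml Hoechst) carried out 5 days after dosing, then counted on 4× images. The cells, lung cancer lines in 1536-well plates, had been dosed by pin tool the day after seeding with one drug alone or a fixed anchor-drug dose plus five library-drug doses (not always all listed) in √10 steps. Relative viability is the nuclei count in treated wells divided by that in vehicle wells, and each value is the median of duplicate plates.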
# [2] = compound: CN(NC(=O)CC(=O)NN(C)C(=S)c1ccccc1)C(=S)c1ccccc1 [Elesclomol] + Cc1nc(NC(=O)N2CCC[C@H]2C(N)=O)sc1-c1ccnc(C(C)(C)C(F)(F)F)c1 [Alpelisib] (partner 2 µM)
# In short: as §1
# [3] = compound: CN(NC(=O)CC(=O)NN(C)C(=S)c1ccccc1)C(=S)c1ccccc1 [Elesclomol] + Cc1nc(Nc2ncc(C(=O)Nc3c(C)cccc3Cl)s2)cc(N2CCN(CCO)CC2)n1 [Dasatinib] (partner 0.075 µM)
# In short: as §1
# [4] = compound: CN(NC(=O)CC(=O)NN(C)C(=S)c1ccccc1)C(=S)c1ccccc1 [Elesclomol] + N=C(N)NC(=N)NCCc1ccccc1 [Phenformin] (partner 250 µM)
# In short: as §1
# [5] = compound: CN(NC(=O)CC(=O)NN(C)C(=S)c1ccccc1)C(=S)c1ccccc1 [Elesclomol] + NC(=O)Nc1cc(-c2cccc(F)c2)sc1C(=O)N[C@H]1CCCNC1 [AZD7762] (partner 0.2 µM)
# In short: as §1
Cell Line,relative viability ([1]; first compound 0.003162 µM),relative viability ([1]; first compound 0.01 µM),relative viability ([1]; first compound 0.03162 µM),relative viability ([1]; first compound 0.1 µM),relative viability ([2]; first compound 0.003162 µM),relative viability ([2]; first compound 0.01 µM),relative viability ([2]; first compound 0.03162 µM),relative viability ([2]; first compound 0.1 µM),relative viability ([3]; first compound 0.003162 µM),relative viability ([3]; first compound 0.01 µM),relative viability ([3]; first compound 0.03162 µM),relative viability ([3]; first compound 0.1 µM),relative viability ([4]; first compound 0.003162 µM),relative viability ([4]; first compound 0.01 µM),relative viability ([4]; first compound 0.03162 µM),relative viability ([4]; first compound 0.1 µM),relative viability ([5]; first compound 0.003162 µM),relative viability ([5]; first compound 0.01 µM),relative viability ([5]; first compound 0.03162 µM),relative viability ([5]; first compound 0.1 µM)
NCI-H596,1.04,1.11,1.03,0.381,0.437,0.472,0.458,0.213,0.606,0.545,0.575,0.21,0.734,0.693,0.714,0.335,1.19,0.943,0.927,0.252
NCI-H647,1.08,0.765,0.267,0.0231,1.12,0.998,0.245,0.017,0.172,0.142,0.0544,0.0326,0.546,0.234,0.104,0.0401,0.539,0.253,0.0623,0.0307
NCI-H650,0.805,0.373,0.195,0.289,1.09,0.342,0.271,0.237,0.535,0.341,0.227,0.24,0.468,0.345,0.315,0.361,1.23,0.848,0.387,0.23
NCI-H727,0.591,0.365,0.165,0.0475,0.545,0.258,0.117,0.0342,0.319,0.242,0.128,0.0864,0.547,0.488,0.402,0.177,0.569,0.683,0.572,0.346
